ChEMBL document CHEMBL5236647, “The discovery of 3,3-dimethyl-1,2,3,4-tetrahydroquinoxaline-1-carboxamides as AMPD2 inhibitors with a novel mechanism of action” (Bioorg Med Chem Lett, 2023)
pIC50: −log10 of the molar value. The source made the active and inactive calls. The rule behind the calls is not given here.

Columns and labels:
AMP deaminase 2 [1] = target: T1, AMP deaminase 2 (Homo sapiens, UniProt Q01433); assay: Inhibition of recombinant human AMPD2 using AMP as substrate preincubated for 30 mins followed by substrate addition and measured after 30 mins by spectrophotometric analysis
T1 sequence (Q01433 whole entry): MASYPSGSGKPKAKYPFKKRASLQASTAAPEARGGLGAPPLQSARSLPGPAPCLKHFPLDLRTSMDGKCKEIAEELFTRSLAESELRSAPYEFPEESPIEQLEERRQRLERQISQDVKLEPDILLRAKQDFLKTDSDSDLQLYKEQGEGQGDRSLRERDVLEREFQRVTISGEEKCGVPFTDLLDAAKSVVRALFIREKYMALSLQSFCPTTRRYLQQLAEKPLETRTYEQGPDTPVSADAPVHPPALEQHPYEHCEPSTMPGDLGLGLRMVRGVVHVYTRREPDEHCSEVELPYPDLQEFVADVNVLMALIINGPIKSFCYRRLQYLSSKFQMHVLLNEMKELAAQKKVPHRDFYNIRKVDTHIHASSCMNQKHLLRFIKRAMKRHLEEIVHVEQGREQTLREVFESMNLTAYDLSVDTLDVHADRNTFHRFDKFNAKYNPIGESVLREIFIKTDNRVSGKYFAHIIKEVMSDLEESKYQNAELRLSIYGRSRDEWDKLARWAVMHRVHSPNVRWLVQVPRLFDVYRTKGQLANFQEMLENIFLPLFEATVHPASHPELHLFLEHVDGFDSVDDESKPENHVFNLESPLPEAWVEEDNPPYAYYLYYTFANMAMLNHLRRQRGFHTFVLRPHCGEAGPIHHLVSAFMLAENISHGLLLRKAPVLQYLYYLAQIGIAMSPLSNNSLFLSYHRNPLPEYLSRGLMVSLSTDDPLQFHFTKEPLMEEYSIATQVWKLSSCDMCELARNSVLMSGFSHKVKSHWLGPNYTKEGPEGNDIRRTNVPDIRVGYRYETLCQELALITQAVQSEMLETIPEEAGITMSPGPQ

AMP deaminase 2 [2] = target: T1, AMP deaminase 2; assay: Inhibition of recombinant human AMPD2 using AMP as substrate incubated for 30 mins by spectrophotometric analysis
[3] = target: T2, AMP deaminase 2 (Homo sapiens) (UniProt Q01433); assay: Selectivity ratio of IC50 for recombinant human AMPD2 using AMP as substrate incubated for 30 mins by spectrophotometric analysis to IC50 for recombinant human AMPD2 using AMP as substrate preincubated for 30 mins followed by substrate addition and measured after 30 mins by spectrophotometric analysis
T2 sequence (whole entry): T1 sequence (Q01433 whole entry)

[4] = Metabolic stability in mouse liver microsomes assessed as compound remaining at 5 uM after 1 hr; assay type: ADME, Microsome; settings: read-out: Stability
[5] = Ex vivo inhibition of AMPD2 in C57BL/6J mouse liver at 30 mg/kg, po administered for 1 hr; assay type: functional
AMP deaminase 2 [6] = target: T3, AMP deaminase 2 (Mus musculus, UniProt Q9DBT5); assay: Inhibition of recombinant mouse AMPD2 using AMP as substrate preincubated for 30 mins followed by substrate addition and measured after 30 mins by spectrophotometric analysis
T3 sequence (Q9DBT5 whole entry): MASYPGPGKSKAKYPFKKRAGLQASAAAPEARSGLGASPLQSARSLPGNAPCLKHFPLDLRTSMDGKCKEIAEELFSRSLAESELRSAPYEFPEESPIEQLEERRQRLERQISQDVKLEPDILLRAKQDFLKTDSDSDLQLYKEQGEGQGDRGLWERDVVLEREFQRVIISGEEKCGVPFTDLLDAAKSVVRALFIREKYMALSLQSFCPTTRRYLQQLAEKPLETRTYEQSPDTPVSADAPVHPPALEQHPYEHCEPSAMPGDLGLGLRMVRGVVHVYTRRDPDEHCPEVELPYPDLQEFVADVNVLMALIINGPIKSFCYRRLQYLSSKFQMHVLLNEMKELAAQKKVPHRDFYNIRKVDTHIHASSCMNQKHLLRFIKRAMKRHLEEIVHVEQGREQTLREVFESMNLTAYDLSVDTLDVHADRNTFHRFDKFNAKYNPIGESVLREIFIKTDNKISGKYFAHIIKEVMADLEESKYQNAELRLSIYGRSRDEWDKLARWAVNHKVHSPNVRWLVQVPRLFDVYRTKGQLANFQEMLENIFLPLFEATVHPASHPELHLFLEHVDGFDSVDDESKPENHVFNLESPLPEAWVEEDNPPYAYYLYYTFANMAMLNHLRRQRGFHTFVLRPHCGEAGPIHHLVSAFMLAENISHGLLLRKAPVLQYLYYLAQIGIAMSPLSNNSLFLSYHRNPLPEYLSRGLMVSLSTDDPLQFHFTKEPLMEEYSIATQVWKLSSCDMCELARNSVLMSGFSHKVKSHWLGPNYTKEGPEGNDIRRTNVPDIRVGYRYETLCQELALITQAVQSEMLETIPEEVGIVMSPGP

[7] = target: T4, AMP deaminase 1 (Homo sapiens) (UniProt P23109); assay: Inhibition of AMPD1 (unknown origin) at 100 uM
T4 sequence (whole entry): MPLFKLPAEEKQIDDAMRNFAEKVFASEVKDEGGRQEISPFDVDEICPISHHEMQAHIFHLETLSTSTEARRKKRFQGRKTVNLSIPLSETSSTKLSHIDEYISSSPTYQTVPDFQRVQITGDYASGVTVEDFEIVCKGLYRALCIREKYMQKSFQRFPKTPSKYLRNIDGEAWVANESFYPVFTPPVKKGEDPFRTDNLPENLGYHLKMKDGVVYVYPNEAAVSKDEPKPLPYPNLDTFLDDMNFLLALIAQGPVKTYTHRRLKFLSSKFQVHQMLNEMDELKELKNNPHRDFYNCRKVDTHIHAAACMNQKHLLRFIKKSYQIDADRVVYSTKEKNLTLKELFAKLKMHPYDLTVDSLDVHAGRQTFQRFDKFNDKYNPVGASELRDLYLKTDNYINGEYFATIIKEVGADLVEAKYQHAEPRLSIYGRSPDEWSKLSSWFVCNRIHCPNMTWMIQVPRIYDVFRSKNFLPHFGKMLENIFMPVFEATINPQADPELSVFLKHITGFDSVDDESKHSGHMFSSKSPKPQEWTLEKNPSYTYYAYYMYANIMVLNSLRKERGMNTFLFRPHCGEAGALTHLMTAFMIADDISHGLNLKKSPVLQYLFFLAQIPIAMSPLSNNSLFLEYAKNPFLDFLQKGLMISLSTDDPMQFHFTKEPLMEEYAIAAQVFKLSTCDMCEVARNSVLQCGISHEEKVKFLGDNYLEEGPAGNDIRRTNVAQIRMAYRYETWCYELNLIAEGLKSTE

CC1(C)CN(C(N)=O)c2ccccc2N1Cc1cccc(CCc2ccccc2)c1
pIC50 (AMP deaminase 2 [1]): 6.30
pIC50 (AMP deaminase 2 [2]): < 5.52

CC1(C)CN(C(N)=O)c2ccc(F)cc2N1Cc1ccccc1
Ratio IC50 [3]: 4.6
pIC50 (AMP deaminase 2 [1]): 5.96
pIC50 (AMP deaminase 2 [2]): 5.29

Cc1cccc2c1N(Cc1ccccc1)C(C)(C)CN2C(N)=O
Ratio IC50 [3]: 2.3
pIC50 (AMP deaminase 2 [1]): 5.66
pIC50 (AMP deaminase 2 [2]): 5.30

CC1(C)CN(C(N)=O)c2ccc(F)c(F)c2N1Cc1ccc(COc2ccccc2)cc1
remaining at 1 h, 5 µM [4]: 51%
inhibition in vivo at 30 mg/kg [5]: 24%
pIC50 (AMP deaminase 2 [1]): 6.89

CC1(C)CN(C(N)=O)c2ccc(F)c(F)c2N1Cc1ccc(COc2ccc(C(N)=O)cc2)cc1
remaining at 1 h, 5 µM [4]: 56%
inhibition in vivo at 30 mg/kg [5]: 58%
pIC50 (AMP deaminase 2 [1]): 6.70

CC1(C)CN(C(N)=O)c2cccc(Cl)c2N1Cc1ccccc1
Ratio IC50 [3]: 9.2
pIC50 (AMP deaminase 2 [1]): 6.74
pIC50 (AMP deaminase 2 [2]): 5.77

CC1(C)CN(C(N)=O)c2ccccc2N1Cc1cccc(OC(F)(F)F)c1
Ratio IC50 [3]: 9.2
pIC50 (AMP deaminase 2 [1]): 6.85
pIC50 (AMP deaminase 2 [2]): 5.89

CNC(=O)N1CC(C)(C)N(Cc2ccccc2)c2ccccc21
pIC50 (AMP deaminase 2 [2]): < 4.00

CC1(C)CN(C(N)=O)c2cc(F)cc(F)c2N1Cc1ccccc1
Ratio IC50 [3]: 16
pIC50 (AMP deaminase 2 [1]): 6.59
pIC50 (AMP deaminase 2 [2]): 5.39

CC1(C)CN(C(N)=O)c2ccccc2N1Cc1ccc(OCc2ccccc2)cc1
Ratio IC50 [3]: 4.2
pIC50 (AMP deaminase 2 [1]): 6.13
pIC50 (AMP deaminase 2 [2]): 5.51

CC1(C)CN(C(N)=O)c2c(F)cccc2N1Cc1ccccc1
Ratio IC50 [3]: 8
pIC50 (AMP deaminase 2 [1]): 6.30
pIC50 (AMP deaminase 2 [2]): 5.40

CC1(C)CN(C(N)=O)c2ccc(F)c(F)c2N1Cc1ccc(COc2ccc(CO)cc2)cc1
remaining at 1 h, 5 µM [4]: 46%
inhibition in vivo at 30 mg/kg [5]: 83%
pIC50 (AMP deaminase 2 [1]): 7.00
pIC50 (AMP deaminase 2 [6]): 6.96

CC1(C)CN(C(N)=O)c2ccccc2N1Cc1ccc(OC(F)(F)F)cc1
Ratio IC50 [3]: 15
pIC50 (AMP deaminase 2 [1]): 6.57
pIC50 (AMP deaminase 2 [2]): 5.39

CC1(C)CN(C(N)=O)c2cccc(F)c2N1Cc1ccccc1
Ratio IC50 [3]: 36
pIC50 (AMP deaminase 2 [1]): 7.52
pIC50 (AMP deaminase 2 [2]): 5.96

CC1(C)CN(C(N)=O)c2cc(F)ccc2N1Cc1ccccc1
Ratio IC50 [3]: 8.2
pIC50 (AMP deaminase 2 [1]): 6.62
pIC50 (AMP deaminase 2 [2]): 5.72

CC1(C)CN(C(N)=O)c2ccccc2N1Cc1ccccc1
Ratio IC50 [3]: 11
pIC50 (AMP deaminase 2 [1]): 6.57
inhibition [7]: inactive
pIC50 (AMP deaminase 2 [2]): 5.52

Cc1cccc(CN2c3ccccc3N(C(N)=O)CC2(C)C)c1
Ratio IC50 [3]: 7.5
pIC50 (AMP deaminase 2 [1]): 6.52
pIC50 (AMP deaminase 2 [2]): 5.64

CCC(=O)N1CC(C)(C)N(Cc2ccccc2)c2ccccc21
pIC50 (AMP deaminase 2 [2]): < 4.00

CC1(C)CN(C(N)=O)c2ccc(F)c(F)c2N1Cc1ccccc1
Ratio IC50 [3]: 33
remaining at 1 h, 5 µM [4]: 18%
inhibition in vivo at 30 mg/kg [5]: 71%
pIC50 (AMP deaminase 2 [1]): 7.22
pIC50 (AMP deaminase 2 [2]): 5.74
pIC50 (AMP deaminase 2 [6]): 7.40

CC(=O)Nc1ccc(OCc2ccc(CN3c4c(ccc(F)c4F)N(C(N)=O)CC3(C)C)cc2)cc1
remaining at 1 h, 5 µM [4]: 34%
inhibition in vivo at 30 mg/kg [5]: 19%
pIC50 (AMP deaminase 2 [1]): 6.77

CC1(C)CN(C(N)=O)c2ccccc2N1Cc1ccc(CCc2ccccc2)cc1
Ratio IC50 [3]: 15
pIC50 (AMP deaminase 2 [1]): 6.39
pIC50 (AMP deaminase 2 [2]): 5.22

CC(=O)N1CC(C)(C)N(Cc2ccccc2)c2ccccc21
Ratio IC50 [3]: 1.4
pIC50 (AMP deaminase 2 [1]): 4.39
pIC50 (AMP deaminase 2 [2]): 4.24

CC1(C)CN(C(N)=O)c2ccccc2N1Cc1ccc(COc2ccccc2)cc1
Ratio IC50 [3]: 25
pIC50 (AMP deaminase 2 [1]): 6.96
pIC50 (AMP deaminase 2 [2]): 5.59

CC1(C)CN(S(C)(=O)=O)c2ccccc2N1Cc1ccccc1
pIC50 (AMP deaminase 2 [2]): < 4.00

CC1(C)CN(C(N)=O)c2ccccc2N1Cc1ccc(Cl)cc1
Ratio IC50 [3]: 8.9
pIC50 (AMP deaminase 2 [1]): 6.72
pIC50 (AMP deaminase 2 [2]): 5.77

Cc1ccc(CN2c3ccccc3N(C(N)=O)CC2(C)C)cc1
Ratio IC50 [3]: 8.2
pIC50 (AMP deaminase 2 [1]): 6.77
pIC50 (AMP deaminase 2 [2]): 5.85

CC1(C)CN(C(N)=O)c2ccccc2N1Cc1ccccc1Cl
Ratio IC50 [3]: 1.8
pIC50 (AMP deaminase 2 [1]): 4.92
pIC50 (AMP deaminase 2 [2]): 4.68
